Like-named read-outs stand apart in the source and are kept apart here.
Columns and labels:
Test in all cases: BromoScan selectivity panel (Kd)
Format in all cases: binding
[1] = molecular target: T1, BRD4(2) (Homo sapiens, UniProt O60885)
T1 construct: the bromodomain-containing protein is BRD4(2)

[2] = molecular target: T2, TAF1(2) (Homo sapiens, UniProt P21675)
T2 construct: TAF1(2)
T2 sequence (P21675 1519-1628 limits assumed): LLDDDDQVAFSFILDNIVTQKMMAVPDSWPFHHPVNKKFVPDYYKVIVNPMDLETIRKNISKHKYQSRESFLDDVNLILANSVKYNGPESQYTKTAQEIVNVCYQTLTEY

[3] = molecular target: T3, BAZ2A (Homo sapiens, UniProt Q9UIF9)
T3 sequence (Q9UIF9 1796-1899 limits assumed): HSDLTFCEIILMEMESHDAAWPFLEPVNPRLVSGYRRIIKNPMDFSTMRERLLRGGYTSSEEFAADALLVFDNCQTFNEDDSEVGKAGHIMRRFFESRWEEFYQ

[4] = molecular target: T4, PERM1(2) (Homo sapiens, UniProt Q86U86)
T4 construct: PERM1(2)
T4 sequence (Q86U86 177-287 limits assumed): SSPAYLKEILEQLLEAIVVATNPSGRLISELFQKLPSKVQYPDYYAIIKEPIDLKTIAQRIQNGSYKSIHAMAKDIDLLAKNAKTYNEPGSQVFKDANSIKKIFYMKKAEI

[5] = molecular target: FALZ (Homo sapiens, UniProt Q12830)
[6] = molecular target: T5, BAZ2B (Homo sapiens, UniProt Q9UIF8)
T5 sequence (Q9UIF8 2054-2168 limits assumed): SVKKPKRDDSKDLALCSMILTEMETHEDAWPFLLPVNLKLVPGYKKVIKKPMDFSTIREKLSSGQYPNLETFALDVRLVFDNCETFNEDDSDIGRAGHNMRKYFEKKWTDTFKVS

[7] = molecular target: T6, EP300 (Homo sapiens, UniProt Q09472)
T6 sequence (Q09472 1040-1161 limits assumed): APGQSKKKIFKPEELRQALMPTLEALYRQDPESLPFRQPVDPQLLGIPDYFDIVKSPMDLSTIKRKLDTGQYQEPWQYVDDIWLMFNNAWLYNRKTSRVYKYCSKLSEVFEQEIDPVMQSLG

[8] = molecular target: T7, BRPF3 (Homo sapiens, UniProt Q9ULD4)
T7 sequence (Q9ULD4 589-693 limits assumed): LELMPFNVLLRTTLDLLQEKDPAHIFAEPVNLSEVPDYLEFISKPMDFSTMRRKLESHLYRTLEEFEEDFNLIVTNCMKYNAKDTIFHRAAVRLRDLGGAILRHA

[9] = molecular target: T8, ATAD2B (Homo sapiens, UniProt Q9ULI0)
T8 sequence (Q9ULI0 953-1085 limits assumed): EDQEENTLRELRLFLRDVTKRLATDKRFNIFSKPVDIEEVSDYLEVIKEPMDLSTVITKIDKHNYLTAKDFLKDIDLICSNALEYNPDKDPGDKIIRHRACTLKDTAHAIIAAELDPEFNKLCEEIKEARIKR

[10] = molecular target: T9, BRD3(1) (Homo sapiens, UniProt Q15059)
T9 construct: the bromodomain-containing protein is BRD3(1)
T9 sequence (Q15059 34-140 limits assumed): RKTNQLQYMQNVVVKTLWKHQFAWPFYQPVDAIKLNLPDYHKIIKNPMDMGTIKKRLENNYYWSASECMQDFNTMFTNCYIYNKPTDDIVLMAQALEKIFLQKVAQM

[11] = molecular target: T10, BRD2(1) (Homo sapiens, UniProt P25440)
T10 construct: the bromodomain-containing protein is BRD2(1)
T10 sequence (P25440 74-180 limits assumed): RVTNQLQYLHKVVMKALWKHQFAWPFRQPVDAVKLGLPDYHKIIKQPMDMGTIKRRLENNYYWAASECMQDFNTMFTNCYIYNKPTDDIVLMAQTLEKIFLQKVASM

[12] = molecular target: T11, WDR9(2) (Homo sapiens, UniProt Q9NSI6)
T11 construct: WDR9(2)
T11 sequence (Q9NSI6 1313-1418 limits assumed): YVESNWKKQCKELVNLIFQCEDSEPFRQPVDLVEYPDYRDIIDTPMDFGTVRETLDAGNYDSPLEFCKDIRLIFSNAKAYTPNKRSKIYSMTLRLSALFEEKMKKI

[13] = molecular target: T12, BRD9 (Homo sapiens, UniProt Q9H8M2)
T12 sequence (Q9H8M2 130-250 limits assumed): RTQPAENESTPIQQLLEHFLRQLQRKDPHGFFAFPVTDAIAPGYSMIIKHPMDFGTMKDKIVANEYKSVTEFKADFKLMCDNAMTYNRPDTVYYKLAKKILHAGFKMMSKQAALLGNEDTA

[14] = molecular target: T13, BRD4(1) (Homo sapiens, UniProt O60885)
T13 construct: the bromodomain-containing protein is BRD4(1)

[15] = molecular target: T14, BRD3(2) (Homo sapiens, UniProt Q15059)
T14 construct: the bromodomain-containing protein is BRD3(2)
T14 sequence (Q15059 306-415 limits assumed): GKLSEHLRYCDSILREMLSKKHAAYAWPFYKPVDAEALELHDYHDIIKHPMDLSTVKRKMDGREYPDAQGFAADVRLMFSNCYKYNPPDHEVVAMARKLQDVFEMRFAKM

[16] = molecular target: T15, BRPF1 (Homo sapiens, UniProt P55201)
T15 sequence (P55201 626-740 limits assumed): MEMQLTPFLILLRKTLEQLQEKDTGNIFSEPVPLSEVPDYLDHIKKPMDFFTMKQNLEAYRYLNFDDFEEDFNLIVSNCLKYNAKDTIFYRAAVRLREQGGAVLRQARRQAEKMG

Cc1noc(C)c1-c1ccc(-c2nc3cnccn3c2NC(C)(C)C)cc1 [UMB32, N-(tert-butyl)-2-(4-(3,5-dimethylisoxazol-4-yl)phenyl)imidazo[1,2-a]pyrazin-3-amine]
Kd ([1]; Table 8, read-out: Kd (nM) BRD4(2)): 31 nM | Kd ([1]; Table 9, read-out: BromoScan Kd, nM BRD4(2)): 31 nM | Kd ([2]; Table 8, read-out: Kd (nM) TAF1(2)): 560 nM | Kd ([2]; Table 9, read-out: BromoScan Kd, nM TAF1(2)): 560 nM | Kd ([3]; Table 8, read-out: Kd (nM) BAZ2A): ≥ 40000 nM | Kd ([3]; Table 9, read-out: BromoScan Kd, nM BAZ2A): ≥ 40000 nM | Kd ([4]; Table 8, read-out: Kd (nM) PERM1(2)): ≥ 40000 nM | Kd ([4]; Table 9, read-out: BromoScan Kd, nM PERM1(2)): ≥ 40000 nM | Kd ([5]; Table 8, read-out: Kd (nM) FALZ): ≥ 40000 nM | Kd ([5]; Table 9, read-out: BromoScan Kd, nM FALZ): ≥ 40000 nM | Kd ([6]; Table 8, read-out: Kd (nM) BAZ2B): ≥ 40000 nM | Kd ([6]; Table 9, read-out: BromoScan Kd, nM BAZ2B): ≥ 40000 nM | Kd ([7]; Table 8, read-out: Kd (nM) EP300): 4500 nM | Kd ([7]; Table 9, read-out: BromoScan Kd, nM EP300): 4500 nM | Kd ([8]; Table 8, read-out: Kd (nM) BRPF3): ≥ 40000 nM | Kd ([8]; Table 9, read-out: BromoScan Kd, nM BRDF3): ≥ 40000 nM | Kd ([9]; Table 8, read-out: Kd (nM) ATAD2B): ≥ 40000 nM | Kd ([9]; Table 9, read-out: BromoScan Kd, nM ATAD2B): ≥ 40000 nM | Kd ([10]; Table 8, read-out: Kd (nM) BRD3(1)): 35 nM | Kd ([10]; Table 9, read-out: BromoScan Kd, nM BRD3(1)): 35 nM | Kd ([11]; Table 8, read-out: Kd (nM) BRD2(1)): 94 nM | Kd ([11]; Table 9, read-out: BromoScan Kd, nM BRD2(1)): 94 nM | Kd ([12]; Table 8, read-out: Kd (nM) WDR9(2)): ≥ 40000 nM | Kd ([12]; Table 9, read-out: BromoScan Kd, nM WDR9(2)): ≥ 40000 nM | Kd ([13]; Table 8, read-out: Kd (nM) BRD9): ≥ 40000 nM | Kd ([13]; Table 9, read-out: BromoScan Kd, nM BRD9): ≥ 40000 nM | Kd ([14]; Table 8, read-out: Kd (nM) BRD4(1)): 80 nM | Kd ([14]; Table 9, read-out: BromoScan Kd, nM BRD4(1)): 80 nM | Kd ([15]; Table 8, read-out: Kd (nM) BRD3(2)): 38 nM | Kd ([15]; Table 9, read-out: BromoScan Kd, nM BRD3(2)): 38 nM | Kd ([16]; Table 8, read-out: Kd (nM) BRPF1): ≥ 40000 nM | Kd ([16]; Table 9, read-out: BromoScan Kd, nM BRPF1): ≥ 40000 nM

Source: US9975896B2, “Inhibitors of transcription factors and uses thereof” (Dana-Farber Cancer Institute, Inc., priority 2013, dated 2018)
